Assay results from patent US9512128B2 (BAYER CROPSCIENCE AG, priority 2012, dated 2016).

How the values were obtained:
[1] = test system: greenhouse red spider mite (Tetranychus urticae); assay: Tetranychus urticae spray test, OP-resistant (TETRUR); assay type: in vivo; settings: after 6 days, bean leaf discs
Protocol: 4. Tetranychus urticae Spray Test, OP-Resistant (TETRUR)
• Solvents: 78.0 parts by weight of acetone • 1.5 part by weight of dimethylformamide • Emulsifier: 0.5 part by weight of alkylaryl polyglycol ether
To produce a suitable preparation of active compound, 1 part by weight of active compound is mixed with the stated amounts of solvents and emulsifier, and the concentrate is diluted with emulsifier-containing water to the desired concentration.
Discs of bean leaves (Phaseolus vulgaris) which are infested by all stages of the greenhouse red spider mite (Tetranychus urticae) are sprayed with an active compound preparation of the desired concentration.
After 6 days, the efficacy in % is determined. 100% means that all of the spider mites have been killed; 0% means that none of the spider mites have been killed.

[2] = log P by HPLC on reversed-phase columns (C 18), EEC directive 79/831 Annex V.A8; assay type: physicochemical; settings: for logP[a]: method [a]; for logP[b]: method [b]
Protocol: The log P values were determined according to EEC directive 79/831 Annex V.A8 by HPLC (High Performance Liquid Chromatography) on reversed-phase columns (C 18), using the methods below:
[a] The LC-MS determination in the acidic range is carried out at pH 2.7 with 0.1% aqueous formic acid and acetonitrile (contains 0.1% formic acid) as mobile phases; linear gradient from 10% acetonitrile to 95% acetonitrile.
[b] The LC-MS determination in the neutral range is carried out at pH 7.8 using the mobile phases 0.001 molar aqueous ammonium bicarbonate solution and acetonitrile; linear gradient from 10% acetonitrile to 95% acetonitrile.

Row | Compound | efficacy in % (spider mites killed) ([1]; application rate 500 g/ha) [%] | other results
1 | Cn1ncc2c(=O)n(-c3ccc(C#N)c([S+]([O-])CC(F)(F)F)c3)cnc21 (racemic) [Compound 26] | 90 | logP[a] [2]: 1.51; logP[b] [2]: 1.56
2 | CCn1cnc2c(=O)n(-c3cc([S+]([O-])CC(F)(F)F)c(C)cc3F)cnc21 (racemic) [Compound 54] | 100 | logP[a] [2]: 1.60; logP[b] [2]: 1.59
3 | Cc1cc(F)c(-n2c(C)nc3c(cnn3CC(F)(F)F)c2=O)cc1SCC(F)(F)F [Compound 20] | 90 | logP[a] [2]: 3.50; logP[b] [2]: 3.44
4 | Cc1cc(F)c(-n2cnc3cnn(C)c3c2=O)cc1SCC(F)(F)F [Compound 38] | 90 | logP[a] [2]: 2.76; logP[b] [2]: 2.76
5 | Cc1cc(F)c(-n2c(C)nc3cnn(C)c3c2=O)cc1SCC(F)(F)F [Compound 39] | 90 | logP[a] [2]: 2.94; logP[b] [2]: 2.87
6 | CCn1ncc2c(=O)n(-c3cc([S+]([O-])CC(F)(F)F)c(C)cc3F)cnc21 (stereo not drawn) [Compound 126] | 90 | –
7 | CCn1ncc2c(=O)n(-c3cc([S+]([O-])CC(F)(F)F)c(C)cc3F)c(C)nc21 (stereo not drawn) [Compound 127] | 100 | –
8 | Cc1cc(F)c(-n2cnc3c(C)nn(C)c3c2=O)cc1SCC(F)(F)F [Compound 128] | 100 | –
9 | Cc1cc(C)c(-n2cnc3cnn(C)c3c2=O)cc1SCC(F)(F)F [Compound 130] | 100 | –
10 | Cc1cc(C)c(-n2c(C)nc3cnn(C)c3c2=O)cc1SCC(F)(F)F [Compound 131] | 90 | –
11 | Cc1cc(C)c([S+]([O-])CC(F)(F)F)cc1-n1nnc2cnn(C)c2c1=O (stereo not drawn) [Compound 132] | 100 | –
12 | Cc1cc(C)c(-n2nnc3cnn(C)c3c2=O)cc1SCC(F)(F)F [Compound 133] | 90 | –
13 | Cc1cc(C)c([S+]([O-])CC(F)(F)F)cc1-n1c(C)nc2cnn(C)c2c1=O (stereo not drawn) [Compound 135] | 90 | –
14 | Cc1cc(F)c(-n2nnc3cnn(C)c3c2=O)cc1SCC(F)(F)F [Compound 137] | 100 | –
15 | Cc1ccc(-n2cnc3cnn(C)c3c2=O)cc1SCC(F)(F)F [Compound 138] | 100 | –
16 | Cc1cc(F)c(-n2c(C)nc3cnn(C)c3c2=O)cc1SCC(F)(F)F [Compound 139] | 100 | –
17 | Cn1ncc2ncn(-c3cc(SCC(F)(F)F)c(Cl)cc3Cl)c(=O)c21 [Compound 140] | 100 | –
18 | Cn1ncc2ncn(-c3cc([S+]([O-])CC(F)(F)F)c(Cl)cc3Cl)c(=O)c21 (stereo not drawn) [Compound 143] | 100 | –
19 | Cc1nc2cnn(C)c2c(=O)n1-c1cc(SCC(F)(F)F)c(Cl)cc1Cl [Compound 144] | 90 | –
20 | Cc1ccc(-n2c(C)nc3cnn(C)c3c2=O)cc1[S+]([O-])CC(F)(F)F (stereo not drawn) [Compound 145] | 100 | –
21 | Cn1ncc2nnn(-c3cc(SCC(F)(F)F)c(Cl)cc3F)c(=O)c21 [Compound 150] | 100 | –
22 | Cc1cc(Cl)c(-n2cnc3cnn(C)c3c2=O)cc1SCC(F)(F)F [Compound 151] | 100 | –
23 | Cc1cc(Cl)c(-n2c(C)nc3cnn(C)c3c2=O)cc1SCC(F)(F)F [Compound 152] | 90 | –
24 | Cc1cc(Cl)c(-n2nnc3cnn(C)c3c2=O)cc1SCC(F)(F)F [Compound 154] | 90 | –
25 | Cn1ncc2ncn(-c3cc([S+]([O-])CC(F)(F)F)c(Cl)cc3F)c(=O)c21 (stereo not drawn) [Compound 156] | 100 | –
26 | Cc1cc(Cl)c(-n2cnc3cnn(C)c3c2=O)cc1[S+]([O-])CC(F)(F)F (stereo not drawn) [Compound 158] | 100 | –
27 | Cc1cc(F)c(-n2c(C)nc3cnn(C(C)C)c3c2=O)cc1[S+]([O-])CC(F)(F)F (stereo not drawn) [Compound 166] | 100 | –
28 | Cc1cc(F)c(-n2cnc3nn(C)cc3c2=O)cc1SCC(F)(F)F [Compound 173] | 90 | –
29 | Cc1cc(F)c(-n2c(C)nc3nn(C)cc3c2=O)cc1SCC(F)(F)F [Compound 174] | – | efficacy in % (spider mites killed) ([1]; application rate 100 g/ha): 90%
